Experimental data from patent US20120214802A1, “PYRROLIDINE COMPOUNDS WHICH INHIBIT BETA-SECRETASE ACTIVITY AND METHODS OF USE THEREOF” (priority 2009, published 2012).

Columns and labels:
[1] = target: T1, memapsin 2 (Cricetulus griseus, UniProt G3IAK4); assay: Cellular Aβ IC50 determination (Aβ40 sandwich ELISA); format: cell-based, Chinese hamster; details: CHO cells over-expressing human APP695 with London and Swedish mutations, 24 h, read-out: M2 IC50
T1 construct: endogenous in cells; host or cells: Chinese hamster ovary cells over-expressing human APP695 (London + Swedish)
Method: The potency of compounds against memapsin 2 activity was determined in a cellular assay of Aβ production. […] Chinese hamster ovary cells that over-express human APP695 with the London and Swedish mutations were seeded in multi-well plates at 10% confluency. Compounds are dissolved in DMSO to concentrations near 1 mM, and diluted into culture media to a final concentration near 4 μM (final 0.4% DMSO). Compounds were diluted serially and applied to cells in multi-well plates 48 h after seeding. Incubation was continued in 5% CO2 at 37° C. for 24 h. Aliquots were removed and assayed for […] using a sandwich ELISA (BioSource International). Amount of Aβ40 over the range of concentration of compounds, relative to control incubations, were fit to a 4-parameter IC50 model.

[2] = target: memapsin 2 (Homo sapiens, UniProt P56817); assay: Inhibition of memapsin 2 beta-secretase activity (fluorogenic substrate FS-2); format: biochemical; details: pH 4, 37° C., read-out: M2 Ki
Method: Potency of compounds were determined by measurement of their inhibition of memapsin 2 activity toward a fluorescent substrate. Kinetic inhibition experiments were performed using the procedure as described in Ermolieff, et al. (Biochemistry 39:12450-12456 (2000), the teachings of which are incorporated hereby in their entirety). Briefly, assays were performed at pH 4, 37° C., by pre-incubation of memapsin 2 enzyme with compound for 20 minutes. Activity measurements were initiated by addition of a fluorogenic substrate FS-2 (Bachem Americas, Torrance, Calif.) MCA-SEVNLDAEFR-DNP (SEQ ID NO.: 2). The substrate was derived from 10 amino acids of the human amyloid precursor protein (APP), with the Swedish variant amino acids at the beta-secretase cleavage site. The terminal amino acid was modified from arginine to lysine to facilitate derivatization with a functional group for detection by autofluorescence. The amino acid sequence of the “core” peptide of the substrate is SEVNLDAEFK (SEQ ID NO.: 3). The amino terminus was derivatized with (7-methoxycoumarin-4-yl)acetyl (MCA), and the epsilon amine of the lysine side chain of the terminal residue (K in sequence SEVNLDAEFK (SEQ ID NO.: 3)) was derivatized with 2,4-dinitorphenyl (DNP).

T1 sequence (G3IAK4 22-501): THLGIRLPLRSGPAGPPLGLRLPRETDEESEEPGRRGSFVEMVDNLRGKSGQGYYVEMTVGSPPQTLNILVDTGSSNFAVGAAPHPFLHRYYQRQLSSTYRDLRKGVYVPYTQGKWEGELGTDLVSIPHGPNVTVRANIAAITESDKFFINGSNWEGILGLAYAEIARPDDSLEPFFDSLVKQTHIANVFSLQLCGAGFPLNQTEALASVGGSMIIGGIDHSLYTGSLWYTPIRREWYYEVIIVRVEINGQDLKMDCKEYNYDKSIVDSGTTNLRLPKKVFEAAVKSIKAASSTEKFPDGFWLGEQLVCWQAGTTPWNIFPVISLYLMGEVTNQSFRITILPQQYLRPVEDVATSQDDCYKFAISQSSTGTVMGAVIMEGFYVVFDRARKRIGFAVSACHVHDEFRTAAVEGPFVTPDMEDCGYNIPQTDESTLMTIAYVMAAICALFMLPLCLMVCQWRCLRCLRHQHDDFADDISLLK
Chain of memapsin 2 (Homo sapiens, UniProt P56817) (P56817 46-501): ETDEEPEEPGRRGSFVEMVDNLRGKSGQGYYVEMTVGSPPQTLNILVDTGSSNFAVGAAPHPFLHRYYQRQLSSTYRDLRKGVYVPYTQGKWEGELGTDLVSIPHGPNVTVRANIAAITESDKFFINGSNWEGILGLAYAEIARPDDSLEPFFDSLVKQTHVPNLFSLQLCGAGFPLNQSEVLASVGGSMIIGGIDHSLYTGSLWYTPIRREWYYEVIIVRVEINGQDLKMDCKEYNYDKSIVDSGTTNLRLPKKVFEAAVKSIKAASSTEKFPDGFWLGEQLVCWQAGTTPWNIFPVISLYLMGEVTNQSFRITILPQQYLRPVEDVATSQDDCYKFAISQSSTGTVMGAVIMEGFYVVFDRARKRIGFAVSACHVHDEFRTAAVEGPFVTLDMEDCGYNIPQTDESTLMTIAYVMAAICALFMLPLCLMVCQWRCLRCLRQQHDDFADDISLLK

SMILES	IC50 [1] [nM]	Ki [2] [nM]
Cc1csc([C@H]2CCCN2C(=O)c2cccc(C(=O)N[C@@H](Cc3ccccc3)[C@H](O)[C@@H]3CCCN3)c2)n1 [1-48, N-((1R,2S)-1-hydroxy-3-phenyl-1-((S)-pyrrolidin-2-yl)propan-2-yl)-3-((R)-2-(4-methylthiazol-2-yl)pyrrolidine-1-carbonyl)benzamide]	> 1000	> 750
C[C@@H](NC(=O)c1cc(C(=O)N[C@@H](Cc2ccccc2)[C@H](O)[C@H]2CCCN2C(=O)OC(C)(C)C)cc(N(C)S(C)(=O)=O)c1)c1ccccc1 [1-5, (R)-tert-butyl 2-((1S,2S)-1-hydroxy-2-(3-(N-methylmethylsulfonamido)-5-((R)-1-phenylethylcarbamoyl)benzamido)-3-phenylpropyl)pyrrolidine-1-carboxylate]	> 1000	> 750
Cc1csc([C@H]2CCCN2C(=O)c2cc(C(=O)N[C@@H](Cc3cc(F)cc(F)c3)[C@H](O)[C@H]3CCCN3)ccn2)n1 [1-61, N-((1R,2S)-3-(3,5-difluorophenyl)-1-hydroxy-1-((R)-pyrrolidin-2-yl)propan-2-yl)-2-((R)-2-(4-methylthiazol-2-yl)pyrrolidine-1-carbonyl)isonicotinamide]	–	250 to 750
Cc1coc([C@H]2CCCN2C(=O)c2cccc(C(=O)N[C@@H](Cc3ccccc3)[C@H](O)[C@H]3CCCN3)c2)n1 [1-4, N-((1R,2S)-1-hydroxy-3-phenyl-1-((R)-pyrrolidin-2-yl)propan-2-yl)-3-((R)-2-(4-methyloxazol-2-yl)pyrrolidine-1-carbonyl)benzamide]	> 1000	250 to 750
Cc1csc([C@H]2CCCN2C(=O)c2cc(C(=O)N[C@@H](Cc3ccccc3)[C@H](O)[C@H]3CC[C@@H](C)N3)cc(-n3cccc3)c2)n1 [1-58, N-((1R,2S)-1-hydroxy-1-((2R,5R)-5-methylpyrrolidin-2-yl)-3-phenylpropan-2-yl)-3-((R)-2-(4-methylthiazol-2-yl)pyrrolidine-1-carbonyl)-5-(1H-pyrrol-1-yl)benzamide]	–	250 to 750
Cc1csc(CN(C)C(=O)c2cccc(C(=O)N[C@@H](Cc3ccccc3)[C@H](O)[C@H]3C[C@H](F)CN3)c2)n1 [1-60, N1-((1R,2S)-1-((2R,4S)-4-fluoropyrrolidin-2-yl)-1-hydroxy-3-phenylpropan-2-yl)-N3-methyl-N3-((4-methylthiazol-2-yl)methyl)isophthalamide]	–	> 750
Cc1csc([C@H]2CCCN2C(=O)c2cccc(C(=O)N[C@@H](Cc3ccccc3)[C@@H](O)[C@H]3CCCN3)c2)n1 [1-80, N-((1S,2S)-1-hydroxy-3-phenyl-1-((R)-pyrrolidin-2-yl)propan-2-yl)-3-((R)-2-(4-methylthiazol-2-yl)pyrrolidine-1-carbonyl)benzamide]	–	> 750
Cc1csc([C@H]2CCCN2C(=O)c2cccc(C(=O)N[C@@H](Cc3ccccc3)[C@H](O)[C@@H]3CC[C@H](c4ccccc4)N3)c2)n1 [1-31, N-((1R,2S)-1-hydroxy-3-phenyl-1-((2S,5R)-5-phenylpyrrolidin-2-yl)propan-2-yl)-3-((R)-2-(4-methylthiazol-2-yl)pyrrolidine-1-carbonyl)benzamide]	–	> 750
Cc1csc([C@H]2CCCN2C(=O)c2cccc(C(=O)N[C@@H](Cc3ccccc3)[C@H](O)[C@H]3CC[C@@H](c4ccccc4)N3)c2)n1 [1-29, N-((1R,2S)-1-hydroxy-3-phenyl-1-((2R,5S)-5-phenylpyrrolidin-2-yl)propan-2-yl)-3-((R)-2-(4-methylthiazol-2-yl)pyrrolidine-1-carbonyl)benzamide]	–	> 750
Cc1csc([C@H]2CCCN2C(=O)c2cccc(C(=O)N[C@@H](Cc3ccc(F)cc3)[C@H](O)[C@H]3CCCN3)c2)n1 [1-65, N-((1R,2S)-3-(4-fluorophenyl)-1-hydroxy-1-((R)-pyrrolidin-2-yl)propan-2-yl)-3-((R)-2-(4-methylthiazol-2-yl)pyrrolidine-1-carbonyl)benzamide]	–	250 to 750

Other lines, results leading:

IC50 [1] [nM]	Ki [2] [nM]	SMILES
< 500	< 250	Cc1coc([C@H]2CCCN2C(=O)c2cc(C(=O)N[C@@H](Cc3ccccc3)[C@H](O)[C@H]3CCCN3)cc(-c3ccccn3)c2)n1 [1-24, N-((1R,2S)-1-hydroxy-3-phenyl-1-((R)-pyrrolidin-2-yl)propan-2-yl)-3-((R)-2-(4-methyloxazol-2-yl)pyrrolidine-1-carbonyl)-5-(pyridin-2-yl)benzamide]
> 1000	250 to 750	Cc1csc([C@H]2CCCN2C(=O)c2cc(C(=O)N[C@@H](Cc3ccccc3)[C@H](O)[C@H]3CCCN3)cc(N(C)C)c2)n1 [1-42, 3-(dimethylamino)-N-((1R,2S)-1-hydroxy-3-phenyl-1-((R)-pyrrolidin-2-yl)propan-2-yl)-5-((R)-2-(4-methylthiazol-2-yl)pyrrolidine-1-carbonyl)benzamide]
> 1000	250 to 750	Cc1csc([C@H]2CCCN2C(=O)c2cccc(C(=O)N[C@@H](Cc3ccccc3)[C@H](O)[C@H]3C[C@H](F)CN3)c2)n1 [1-47, N-((1R,2S)-1-((2R,4S)-4-fluoropyrrolidin-2-yl)-1-hydroxy-3-phenylpropan-2-yl)-3-((R)-2-(4-methylthiazol-2-yl)pyrrolidine-1-carbonyl)benzamide]
< 500	< 250	Cc1coc([C@H]2CCCN2C(=O)c2cc(C(=O)N[C@@H](Cc3ccccc3)[C@H](O)[C@H]3CCCN3)cc(-c3cnccn3)c2)n1 [1-21, N-((1R,2S)-1-hydroxy-3-phenyl-1-((R)-pyrrolidin-2-yl)propan-2-yl)-3-((R)-2-(4-methyloxazol-2-yl)pyrrolidine-1-carbonyl)-5-(pyrazin-2-yl)benzamide]
–	< 250	CO[C@H]1CN[C@@H]([C@H](O)[C@H](Cc2ccccc2)NC(=O)c2cccc(C(=O)N3CCC[C@@H]3c3nc(C)cs3)c2)C1 [1-82, N-((1S,2S)-1-hydroxy-1-((2R,4R)-4-methoxypyrrolidin-2-yl)-3-phenylpropan-2-yl)-3-((R)-2-(4-methylthiazol-2-yl)pyrrolidine-1-carbonyl)benzamide]
–	< 250	CO[C@H]1CN[C@@H]([C@@H](O)[C@H](Cc2ccccc2)NC(=O)c2cc(C(=O)N3CCC[C@@H]3c3nc(C)cs3)cc(-c3ncco3)c2)C1 [1-81, N-((1R,2S)-1-hydroxy-1-((2R,4R)-4-methoxypyrrolidin-2-yl)-3-phenylpropan-2-yl)-3-((R)-2-(4-methylthiazol-2-yl)pyrrolidine-1-carbonyl)-5-(oxazol-2-yl)benzamide]
–	< 250	Cc1csc([C@H]2CCCN2C(=O)c2cc(C(=O)N[C@@H](Cc3ccccc3)[C@H](O)[C@H]3CCCN3)cc(S(C)(=O)=O)c2)n1 [1-68, N-((1R,2S)-1-hydroxy-3-phenyl-1-((R)-pyrrolidin-2-yl)propan-2-yl)-3-(methylsulfonyl)-5-((R)-2-(4-methylthiazol-2-yl)pyrrolidine-1-carbonyl)benzamide]
–	< 250	Cc1csc([C@H]2CCCN2C(=O)c2cc(C(=O)N[C@@H](Cc3cc(F)cc(F)c3)[C@H](O)[C@H]3CCCN3)cc(C3CC3)c2)n1 [1-62, 3-cyclopropyl-N-((1R,2S)-3-(3,5-difluorophenyl)-1-hydroxy-1-((R)-pyrrolidin-2-yl)propan-2-yl)-5-((R)-2-(4-methylthiazol-2-yl)pyrrolidine-1-carbonyl)benzamide]
–	< 250	Cc1csc([C@H]2CCCN2C(=O)c2cc(C(=O)N[C@@H](Cc3ccccc3)[C@H](O)[C@H]3C[C@H](F)CN3)cc(-c3ncco3)c2)n1 [1-38, N-((1R,2S)-1-((2R,4S)-4-fluoropyrrolidin-2-yl)-1-hydroxy-3-phenylpropan-2-yl)-3-((R)-2-(4-methylthiazol-2-yl)pyrrolidine-1-carbonyl)-5-(oxazol-2-yl)benzamide]
–	< 250	Cc1csc([C@H]2CCCN2C(=O)c2cc(C(=O)N[C@@H](Cc3ccccc3)[C@H](O)[C@H]3CCCN3)cc([N+](=O)[O-])c2)n1 [1-55, N-((1R,2S)-1-hydroxy-3-phenyl-1-((R)-pyrrolidin-2-yl)propan-2-yl)-3-((R)-2-(4-methylthiazol-2-yl)pyrrolidine-1-carbonyl)-5-nitrobenzamide]
–	< 250	Cc1csc([C@H]2CCCN2C(=O)c2cccc(C(=O)N[C@@H](Cc3ccccc3)[C@H](O)[C@@H]3NCCC3(F)F)c2)n1 [1-57, N-((1S,2S)-1-((S)-3,3-difluoropyrrolidin-2-yl)-1-hydroxy-3-phenylpropan-2-yl)-3-((R)-2-(4-methylthiazol-2-yl)pyrrolidine-1-carbonyl)benzamide]
–	< 250	Cc1csc([C@H]2CCCN2C(=O)c2cc(C(=O)N[C@@H](Cc3ccccc3)[C@H](O)[C@H]3C[C@H](F)CN3)cc(-n3cccc3)c2)n1 [1-59, N-((1R,2S)-1-((2R,4S)-4-fluoropyrrolidin-2-yl)-1-hydroxy-3-phenylpropan-2-yl)-3-((R)-2-(4-methylthiazol-2-yl)pyrrolidine-1-carbonyl)-5-(1H-pyrrol-1-yl)benzamide]
